{"source": "paper doi:10.1101/2024.08.16.608276v1", "about": "“The kinetoplastid kinetochore protein KKT23 acetyltransferase is a structural homolog of GCN5 that acetylates the histone H2A C-terminal tail” (biorxiv, 2024)", "molecular_target": "T1, KKT23^2–348 (Trypanosoma brucei, UniProt Q38AU6)", "T1 construct": "gene Tb10.70.0180; full-length recombinant protein (residues 2-348), E. coli, His-tag cut by TEV, monomer, calculated 39 kDa; strain printed for the cell lines only", "T1 sequence (Q38AU6 2-348)": "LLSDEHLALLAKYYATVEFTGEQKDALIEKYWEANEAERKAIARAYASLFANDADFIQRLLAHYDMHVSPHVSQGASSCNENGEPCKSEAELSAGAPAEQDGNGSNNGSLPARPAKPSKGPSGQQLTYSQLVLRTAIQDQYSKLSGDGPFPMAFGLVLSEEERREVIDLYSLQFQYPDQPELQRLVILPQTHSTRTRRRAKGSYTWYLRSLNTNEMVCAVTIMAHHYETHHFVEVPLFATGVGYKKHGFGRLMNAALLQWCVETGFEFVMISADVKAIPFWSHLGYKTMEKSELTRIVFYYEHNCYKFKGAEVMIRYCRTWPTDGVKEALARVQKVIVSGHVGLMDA", "experiment": "histone acetyltransferase assay, anti-acetyl-lysine immunoblot and mass spectrometry", "assay_type": "biochemical", "conditions": "co-substrate reconstituted T. brucei nucleosomes (H2A C-terminal tail); up to 200 uM acetyl-CoA; pH 8.0, 30 C, 1 h"}
{"smiles": "CC(=O)SCCNC(=O)CCNC(=O)[C@H](O)C(C)(C)COP(=O)(O)OP(=O)(O)OC[C@H]1O[C@@H](n2cnc3c(N)ncnc32)[C@H](O)[C@@H]1OP(=O)(O)O", "note": "[acetyl coenzyme A]", "values": [{"measurement": "histone acetyltransferase assay, anti-acetyl-lysine immunoblot and mass spectrom", "value": "recombinant KKT23 was incubated with acetyl-CoA and nucleosomes reconstituted using either T. brucei or H. sapiens"}]}
